Laboratory results published in patent US20250188082A1, “Use of Hypoxanthine Compound In Preparation of Drug For Treating Pulmonary Fibrosis” (Sichuan Yiasuo Pharmaceutical Technology Co., Ltd., priority 2022, published 2025).

Legend:
Type in all cases: in vivo, C57BL/6 mice
[1] = system: bleomycin-induced pulmonary fibrosis model; experiment: Advanced pulmonary fibrosis: bleomycin-induced model, dosing from three weeks after modelling; details: for Leucocyte / Lymphocyte / Neutrophil / Ashcroft scores: advanced pulmonary fibrosis, 120 mg/kg/d intragastric, 14 days, from three weeks after model; for Leucocyte / Lymphocyte / Neutrophil: blood, Day 15, twice every day; for Ashcroft scores: lung tissue HE staining; for inhibition (anti-inflammatory) effect on leucocytes, neutrophils and lymphocytes in blood: mice with advanced pulmonary fibrosis, result in words
[2] = system: Streptococcus pneumoniae-induced pulmonary fibrosis model; experiment: Streptococcus pneumoniae-induced pulmonary fibrosis model; details: for Leucocyte / Lymphocyte / Neutrophil / Ashcroft scores: Streptococcus pneumoniae + bleomycin, 120 mg/kg/d intragastric, 14 days; for Leucocyte / Lymphocyte / Neutrophil: blood, Day 15, 3 times every day, from one week after model; for Ashcroft scores: lung tissue HE staining; for inhibition (anti-inflammatory) effect on leucocytes, neutrophils and lymphocytes in blood: mice with Streptococcus pneumoniae-induced pulmonary fibrosis, result in words
[3] = system: influenza A virus-induced pulmonary fibrosis model (FM1 strain of influenza A (H1N1) virus); experiment: Influenza A virus-induced pulmonary fibrosis model; details: 120 mg/kg/d intragastric, 14 days; for Ashcroft scores: influenza A virus + bleomycin, lung tissue HE; for IL-1β / IL-6 / NF-κB / TNF-α: serum, influenza A (H1N1) FM1 + bleomycin, from two weeks after model
Text: Experimental method: an in-vivo influenza A virus-induced pulmonary fibrosis model was established: C57BL/6 mice (with weights being 22-25 g) were randomly and evenly divided into a plurality of groups, including blank control group, model group, Nintedanib positive control group, hypoxanthine analogue A group, hypoxanthine analogue B group, hypoxanthine analogue C group, compound 1 group, compound 2 group . . . compound 12 group, with 9 mice in each group. On Day 1, the mice in blank control group were instilled with normal saline nasally, and the mice in other groups were all infected with a FM1 strain of an influenza A (H1N1) virus 30 (μL) through nasal instillation. On Day 2, the mice received 5 mg/kg bleomycin through tracheas to induce their pulmonary fibrosis. After the model was established for two weeks, the mice in each group were intragastrically administrated for intervention for consecutive 14 days; the mice in blank control group and model group intragastrically received the same dosage of the normal saline as those in drug groups; the mice in Nintedanib positive control group received Nintedanib (120 mg/kg); the mice in hypoxanthine analogue A group, hypoxanthine analogue B group and hypoxanthine analogue C group respectively received hypoxanthine analogue A (120 mg/kg/d), hypoxanthine analogue B (120 mg/kg/d) and hypoxanthine analogue C (120 mg/kg/d); and the mice in compound 1 group, compound 2 group . . . compound 12 group respectively received compound 1 (120 mg/kg/d), compound 2 (120 mg/kg/d) . . . compound 12 (120 mg/kg/d) prepared in example 1. After administration for consecutive 14 days, the mice were observed every day, and their weights and death conditions were recorded. After administration, blood was taken from eyeballs for immediately detecting the expression levels of NF-κB, TNF-α, IL-1 and IL-6 in serum, and lung tissues were taken for HE detection and Ashcroft scoring.

[4] = system: influenza B virus-induced pulmonary fibrosis model (influenza B (H7N9) virus); details: 120 mg/kg/d intragastric, 14 days; for Ashcroft scores: influenza B virus + bleomycin, lung tissue HE; for IL-1β / NF-κB / TNF-α / IL-6: serum, from two weeks after model; for IL-1β / NF-κB / TNF-α: influenza B (H7N9) + bleomycin; for IL-6: influenza B + bleomycin
[5] = system: novel coronavirus-induced pulmonary fibrosis model (COVID-19 novel coronavirus strains); experiment: Novel coronavirus-induced pulmonary fibrosis model; details: 120 mg/kg/d intragastric, 14 days; for Ashcroft scores: novel coronavirus + bleomycin, lung tissue HE; for IL-1β / IL-6 / NF-κB / TNF-α: serum, COVID-19 novel coronavirus + bleomycin, from two weeks after model
Text: Experimental method: an in-vivo novel coronavirus-induced pulmonary fibrosis model was established: C57BL/6 mice (with weights being 22-25 g) were randomly and evenly divided into a plurality of groups, including blank control group, model group, Nintedanib positive control group, hypoxanthine analogue A group, hypoxanthine analogue B group, hypoxanthine analogue C group, compound 1 group, a compound 2 group . . . compound 12 group, with 9 mice in each group. On Day 1, the mice in blank control group were instilled with normal saline nasally, and the mice in other groups were all infected with COVID-19 novel coronavirus strains (30 μL) through nasal instillation. On Day 2, the mice received 5 mg/kg bleomycin through tracheas to induce their pulmonary fibrosis. After the model was established for two weeks, the mice in each group were intragastrically administrated for intervention for consecutive 14 days; the mice in blank control group and model group intragastrically received the same dosage of normal saline as those in drug groups; the mice in Nintedanib positive control group received Nintedanib (120 mg/kg); the mice in hypoxanthine analogue A group, hypoxanthine analogue B group and hypoxanthine analogue C group respectively received hypoxanthine analogue A (120 mg/kg/d), hypoxanthine analogue B (120 mg/kg/d) and hypoxanthine analogue C (120 mg/kg/d); and the mice in compound 1 group, compound 2 group . . . compound 12 group respectively received compound 1 (120 mg/kg/d), compound 2 (120 mg/kg/d) . . . compound 12 (120 mg/kg/d) prepared in example 1. After administration for consecutive 14 days, the mice were observed every day, and their weights and death conditions were recorded. After administration, blood was taken from eyeballs for immediately detecting the expression levels of NF-κB, TNF-α, IL-1 and IL-6 in serum, and lung tissues were taken for HE detection and Ashcroft scoring.

| Compound | Leucocyte [1] | Lymphocyte [1] | Neutrophil [1] | Ashcroft scores [1] | Leucocyte [2] | Lymphocyte [2] | Neutrophil [2] | Ashcroft scores [2] | Ashcroft scores [3] | IL-1β [3] [pg/mL] | IL-6 [3] [pg/mL] | NF-κB [3] [pg/mL] | TNF-α [3] [pg/mL] | Ashcroft scores [4] | IL-1β [4] [pg/mL] | NF-κB [4] [pg/mL] | TNF-α [4] [pg/mL] | IL-6 [4] [pg/mL] | Ashcroft scores [5] | IL-1β [5] [pg/mL] | other results |
| --- | --- | --- | --- | --- | --- | --- | --- | --- | --- | --- | --- | --- | --- | --- | --- | --- | --- | --- | --- | --- | --- |
| CCOc1ncnc2c1ncn2C(C)C [Compound 8] | 4.59 10^9/L | 5.73 10^9/L | 1.42 10^9/L | 1.21 | 6.68 10^9/L | 8.09 10^9/L | 1.94 10^9/L | 1.31 | 1.28 | 28.6 | 66.0 | 26.8 | 89.9 | 1.16 | 27.1 | 31.9 | 73.5 | 66.5 | 1.24 | 38.4 | IL-6 [5]: 68.2 pg/mL; NF-κB [5]: 23.4 pg/mL; TNF-α [5]: 66.7 pg/mL |
| CCCOc1ncnc2c1ncn2C(C)C [Compound 9] | 4.69 10^9/L | 5.69 10^9/L | 1.46 10^9/L | 1.11 | 6.73 10^9/L | 7.11 10^9/L | 1.89 10^9/L | 1.33 | 1.33 | 28.4 | 65.8 | 27.1 | 91.1 | 1.23 | 26.9 | 30.8 | 73.8 | 66.1 | 1.34 | 39.6 | IL-6 [5]: 69.1 pg/mL; NF-κB [5]: 22.9 pg/mL; TNF-α [5]: 68.8 pg/mL |
| CC(C)Oc1ncnc2c1N(C(C)C)CN2C(C)C [Compound 10] | 4.26 10^9/L | 5.71 10^9/L | 1.38 10^9/L | 1.16 | 7.01 10^9/L | 7.33 10^9/L | 1.99 10^9/L | 1.38 | 1.30 | 29.3 | 64.9 | 27.7 | 89.6 | 1.25 | 27.8 | 31.2 | 74.7 | 65.5 | 1.67 | 38.1 | IL-6 [5]: 67.5 pg/mL; NF-κB [5]: 26.5 pg/mL; TNF-α [5]: 68.9 pg/mL |
| CC(=O)Oc1ncnc2c1ncn2C(C)C [Compound 11] | 4.22 10^9/L | 5.57 10^9/L | 1.39 10^9/L | 1.07 | 6.29 10^9/L | 6.21 10^9/L | 1.81 10^9/L | 1.28 | 1.26 | 27.9 | 64.6 | 26.6 | 88.7 | 1.15 | 26.8 | 31.6 | 73.5 | 65.3 | 1.31 | 37.2 | NF-κB [5]: 26.7 pg/mL; TNF-α [5]: 69.0 pg/mL |
| CCC(=O)Oc1ncnc2c1ncn2C(C)C [Compound 12] | 4.04 10^9/L | 5.65 10^9/L | 1.23 10^9/L | 1.13 | 7.04 10^9/L | 7.23 10^9/L | 1.97 10^9/L | 1.39 | 1.31 | 29.9 | 64.7 | 28.1 | 90.8 | 1.26 | 27.8 | 32.9 | 75.4 | 69.7 | 1.18 | 38.9 | IL-6 [5]: 66.8 pg/mL; NF-κB [5]: 27.3 pg/mL; TNF-α [5]: 68.4 pg/mL |
| O=c1[nH]cnc2[nH]cnc12 [Hypoxanthine analogue A, reference compound] | 66.48 10^9/L | 71.65 10^9/L | 67.48 10^9/L | 5.88 | 155.12 10^9/L | 90.75 10^9/L | 89.99 10^9/L | 6.12 | 6.11 | 323.1 | 450.9 | 780.3 | 339.4 | 6.26 | 239.9 | 630.5 | 191.3 | 194.8 | 6.13 | 489.0 | inhibition (anti-inflammatory) effect on leucocytes, neutrophils and lymphocytes in blood [1]: obviously inferior; inhibition (anti-inflammatory) effect on leucocytes, neutrophils and lymphocytes in blood [2]: obviously inferior; IL-6 [5]: 554.5 pg/mL; NF-κB [5]: 731.3 pg/mL; TNF-α [5]: 400.5 pg/mL |
| CC(C)Oc1ncnc2c1ncn2C [Hypoxanthine analogue B, reference compound] | 71.35 10^9/L | 67.37 10^9/L | 68.34 10^9/L | 6.01 | 156.11 10^9/L | 91.01 10^9/L | 89.86 10^9/L | 6.14 | 6.07 | 329.7 | 422.7 | 771.9 | 341.6 | 6.21 | 240.6 | 627.1 | 190.2 | 193.1 | 6.38 | 491.8 | inhibition (anti-inflammatory) effect on leucocytes, neutrophils and lymphocytes in blood [1]: obviously inferior; inhibition (anti-inflammatory) effect on leucocytes, neutrophils and lymphocytes in blood [2]: obviously inferior; IL-6 [5]: 552.3 pg/mL; NF-κB [5]: 741.1 pg/mL; TNF-α [5]: 401.9 pg/mL |
